The record followed here is US20090264471A1, “Compounds, Compositions and Methods Comprising Triazole Derivatives” (Institute for OneWorld Health, priority 2008, published 2009).

SMILES strings stand for the structures. pIC50: −log10 of the molar value.

The target in this assay is T1, CFTR (Homo sapiens, UniProt P13569).
T1 construct: results in the phosphorylation and opening of CFTR anion channels; host or cells: Human colonic T84 cells
T1 sequence (P13569 whole entry): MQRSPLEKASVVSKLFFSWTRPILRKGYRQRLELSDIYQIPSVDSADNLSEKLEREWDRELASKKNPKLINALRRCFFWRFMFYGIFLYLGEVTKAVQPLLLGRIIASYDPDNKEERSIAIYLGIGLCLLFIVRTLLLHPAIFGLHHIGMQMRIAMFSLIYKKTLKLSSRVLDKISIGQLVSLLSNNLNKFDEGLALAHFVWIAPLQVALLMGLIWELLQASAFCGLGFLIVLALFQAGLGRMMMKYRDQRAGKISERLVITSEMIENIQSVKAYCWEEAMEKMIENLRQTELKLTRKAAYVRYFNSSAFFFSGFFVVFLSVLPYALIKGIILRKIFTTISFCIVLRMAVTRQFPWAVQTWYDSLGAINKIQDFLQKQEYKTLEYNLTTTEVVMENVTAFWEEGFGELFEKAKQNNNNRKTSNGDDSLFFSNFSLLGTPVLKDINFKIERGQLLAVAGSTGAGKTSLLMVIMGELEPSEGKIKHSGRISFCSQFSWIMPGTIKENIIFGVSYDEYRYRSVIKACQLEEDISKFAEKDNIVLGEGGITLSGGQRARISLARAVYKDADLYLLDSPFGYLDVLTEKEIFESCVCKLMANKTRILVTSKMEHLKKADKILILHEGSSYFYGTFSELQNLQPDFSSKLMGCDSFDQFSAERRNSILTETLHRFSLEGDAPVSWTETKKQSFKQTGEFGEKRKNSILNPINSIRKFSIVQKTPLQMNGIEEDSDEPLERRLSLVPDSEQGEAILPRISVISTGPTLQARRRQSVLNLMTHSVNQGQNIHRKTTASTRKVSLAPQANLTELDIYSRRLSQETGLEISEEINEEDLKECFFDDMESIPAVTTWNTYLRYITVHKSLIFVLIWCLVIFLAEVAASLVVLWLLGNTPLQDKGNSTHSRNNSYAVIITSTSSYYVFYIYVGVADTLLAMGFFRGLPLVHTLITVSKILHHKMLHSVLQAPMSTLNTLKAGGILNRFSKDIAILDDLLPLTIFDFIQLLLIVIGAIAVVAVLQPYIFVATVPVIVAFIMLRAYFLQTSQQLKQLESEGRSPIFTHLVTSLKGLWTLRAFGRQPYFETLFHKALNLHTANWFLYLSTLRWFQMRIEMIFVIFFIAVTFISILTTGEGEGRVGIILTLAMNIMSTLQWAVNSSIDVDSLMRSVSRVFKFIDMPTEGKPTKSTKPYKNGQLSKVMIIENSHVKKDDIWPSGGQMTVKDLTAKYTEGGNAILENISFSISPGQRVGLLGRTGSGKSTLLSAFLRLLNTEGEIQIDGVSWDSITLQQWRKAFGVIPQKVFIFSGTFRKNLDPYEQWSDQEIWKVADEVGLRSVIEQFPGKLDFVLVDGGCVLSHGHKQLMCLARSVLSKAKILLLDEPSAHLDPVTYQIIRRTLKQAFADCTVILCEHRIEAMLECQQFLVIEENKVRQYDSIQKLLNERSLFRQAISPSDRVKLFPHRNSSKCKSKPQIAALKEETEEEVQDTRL
The experiment in a line: T84 assay (FLIPR membrane potential dye, forskolin/IBMX-stimulated CFTR channel activity). The class given is cell-based. The conditions noted are these: human colonic T84 cells, average of at least 2 runs unless annotated n = 1. As to the method: (§1) For example, Human colonic T84 cells can be acquired from the European Collection of Cell Cultures (ECACC) and grown in standard culture conditions as described by the supplier. On the day before assay 25,000 T84 cells per well are plated into standard black walled, clear bottom 384-well assay plates in standard growth medium consisting of DMEM:F12 with 10% FBS and incubated overnight. On the day of the assay the plates are washed using a standard assay buffer (HBSS with 10 mM Hepes) and incubated for 15 minutes in serum free cell culture medium before the addition of a commercially available membrane potential sensitive fluorescent dye (FLIPR Red membrane potential dye, Molecular Devices Corporation). T84 cells are incubated with the FLIPR Red membrane potential dye for 45 minutes in the presence and absence of test compound before being transferred to a commercially available fluorescence imaging plate reader (FLIPR384, Molecular Devices Corporation). Fluorescence levels are monitored continuously every second for 150 seconds; after an initial 10 second baseline, CFTR channel activity is stimulated through the addition of 10 μM forskolin in the presence of 100 μM of the phosphodiesterase inhibitor iso-butyl-methylxanthine (IBMX). Addition of the forskolin leads to the activation of intracellular adenylyl cylase 1, elevating cAMP levels and results in the phosphorylation and opening of CFTR anion channels. CFTR channel opening causes chloride ion efflux and subsequent depolarization of the cells, which is measured by an increase in fluorescence. CFTR inihibitor compounds prevent cell depolarization and the associated increase in fluorescence.
as §1, with “Human colonic” for “For example, Human colonic”, “T84 cells are acquired from” for “T84 cells can be acquired from”, “(ECACC) and are grown in” for “(ECACC) and grown in”, “fluorescence. CFTR inhibitor compounds prevent” for “fluorescence. CFTR inihibitor compounds prevent”
Regarding `O=C(NC(c1ccccc1)c1ccccc1)c1nc(-c2cc(Br)c(O)c(Br)c2)n[nH]1` [Compound 78, N-benzhydryl-3-(3,5-dibromo-4-hydroxyphenyl)-1H-1,2,4-triazole-5-carboxamide], the pIC50 (as a rule, the IC50 on a negative log10 scale, so that one unit is a factor of ten) was 5.49.

In turn, `O=C(NCc1ccc(Cl)c(Cl)c1)c1n[nH]c(-c2cc(Cl)c(O)c(Cl)c2)n1` [Compound 91, 5-(3,5-dichloro-4-hydroxyphenyl)-N-(3,4-dichlorobenzyl)-1H-1,2,4-triazole-3-carboxamide] showed a pIC50 of 5.80.

`O=C(NCc1cc(Cl)cc(Cl)c1)c1n[nH]c(-c2cc(Cl)c(O)c(Cl)c2)n1` [Compound 97, 5-(3,5-dichloro-4-hydroxyphenyl)-N-(3,5-dichlorobenzyl)-1H-1,2,4-triazole-3-carboxamide] showed a pIC50 of 5.17.

`O=C(NCc1cc(F)c(F)c(F)c1)c1n[nH]c(-c2cc(Cl)c(O)c(Cl)c2)n1` [Compound 89, 5-(3,5-dichloro-4-hydroxyphenyl)-N-(3,4,5-trifluorobenzyl)-1H-1,2,4-triazole-3-carboxamide] gave a pIC50 of 5.28.

`O=C(NCc1ccccc1C(F)(F)F)c1n[nH]c(-c2cc(Cl)c(O)c(Cl)c2)n1` [Compound 85, 5-(3,5-dichloro-4-hydroxyphenyl)-N-(2-(trifluoromethyl)benzyl)-1H-1,2,4-triazole-3-carboxamide]: the negative logarithm of the IC50 (pIC50) is 4.75.

In turn, `O=C(c1n[nH]c(-c2cc(Cl)c(O)c(Cl)c2)n1)N1CCN(c2cccc(C(F)(F)F)c2)CC1` [Compound 83, (5-(3,5-dichloro-4-hydroxyphenyl)-1H-1,2,4-triazol-3-yl)(4-(3-(trifluoromethyl)phenyl)piperazin-1-yl)methanone] had a pIC50 of 5.16.

In turn, `CN(Cc1ccc(Cl)c(Cl)c1)C(=O)c1n[nH]c(-c2cc(Cl)c(O)c(Cl)c2)n1` [Compound 95, 5-(3,5-Dichloro-4-hydroxyphenyl)-N-(3,4-dichlorobenzyl)-N-methyl-1H-1,2,4-triazole-3-carboxamide] gave a pIC50 of 5.10.

`CN(Cc1ccc(C(C)(C)C)cc1)C(=O)c1n[nH]c(-c2cc(Cl)c(O)c(Cl)c2)n1` [Compound 96, N-(4-tert-butylbenzyl)-5-(3,5-dichloro-4-hydroxyphenyl)-N-methyl-1H-1,2,4-triazole-3-carboxamide]: the pIC50 was 5.12. This pIC50 and that of the compound before are within 0.2 log units of each other.

With `O=C(NCc1ccc(Oc2ccccc2)cc1)c1n[nH]c(-c2cc(Cl)c(O)c(Cl)c2)n1` [Compound 92, 5-(3,5-dichloro-4-hydroxyphenyl)-N-(4-phenoxybenzyl)-1H-1,2,4-triazole-3-carboxamide], the pIC50 was 5.48.

The compound `O=C(c1nc(-c2cc(Br)c(O)c(Br)c2)n[nH]1)N1CCC(Cc2ccccc2)CC1` [Compound 80, (4-Benzylpiperidin-1-yl)(3-(3,5-dibromo-4-hydroxyphenyl)-1H-1,2,4-triazol-5-yl)methanone] gave a pIC50 of 4.98.

`O=C(c1n[nH]c(-c2cc(Cl)c(O)c(Cl)c2)n1)N1CCC(Cc2ccccc2)CC1` [Compound 82, (4-benzylpiperidin-1-yl)(5-(3,5-dichloro-4-hydroxyphenyl)-1H-1,2,4-triazol-3-yl)methanone] had a pIC50 of 5.15. This pIC50 and that of the compound before are within 0.2 log units of each other.

Take `O=C(NC(c1ccccc1)c1ccccc1)c1n[nH]c(-c2cc(Cl)c(O)c(Cl)c2)n1` [Compound 88, N-benzhydryl-5-(3,5-dichloro-4-hydroxyphenyl)-1H-1,2,4-triazole-3-carboxamide]: the pIC50 was 5.13.

With `O=C(NCc1ccc(OC(F)(F)F)cc1)c1n[nH]c(-c2cc(Cl)c(O)c(Cl)c2)n1` [Compound 94, 5-(3,5-dichloro-4-hydroxyphenyl)-N-(4-(trifluoromethoxy)benzyl)-1H-1,2,4-triazole-3-carboxamide], the pIC50 is 5.04. The pIC50 values of the last two compounds are within 0.2 log units of each other.

Consider `CN(Cc1ccc(Cl)cc1)C(=O)c1n[nH]c(-c2cc(Cl)c(O)c(Cl)c2)n1` [Compound 93, N-(4-chlorobenzyl)-5-(3,5-dichloro-4-hydroxyphenyl)-N-methyl-1H-1,2,4-triazole-3-carboxamide], for which the pIC50 was 4.60. Compared with the last compound, the pIC50 is 0.44 log units lower.

On to `O=C(NCc1ccc(F)c(F)c1)c1n[nH]c(-c2cc(Cl)c(O)c(Cl)c2)n1` [Compound 84, 5-(3,5-dichloro-4-hydroxyphenyl)-N-(3,4-difluorobenzyl)-1H-1,2,4-triazole-3-carboxamide], for which the pIC50 was 4.81.

On to `O=C(NCc1cccc(OC(F)(F)F)c1)c1n[nH]c(-c2cc(Cl)c(O)c(Cl)c2)n1` [Compound 86, 5-(3,5-dichloro-4-hydroxyphenyl)-N-(3-(trifluoromethoxy)benzyl)-1H-1,2,4-triazole-3-carboxamide], for which the pIC50 was 4.65.

`O=C(NCc1ccc(C(F)(F)F)cc1)c1n[nH]c(-c2cc(Cl)c(O)c(Cl)c2)n1` [Compound 87, 5-(3,5-dichloro-4-hydroxyphenyl)-N-(4-(trifluoromethyl)benzyl)-1H-1,2,4-triazole-3-carboxamide] had a pIC50 of 4.60.

In turn, `O=C(c1nc(-c2cc(Br)c(O)c(Br)c2)n[nH]1)N1CCN(c2cccc(C(F)(F)F)c2)CC1` [Compound 79, (3-(3,5-dibromo-4-hydroxyphenyl)-1H-1,2,4-triazol-5-yl)(4-(3-(trifluoromethyl)phenyl)piperazin-1-yl)methanone] gave a pIC50 of 5.16.

For the compound `O=C(NCc1ccc(Oc2ccccc2)cc1)c1nc(-c2cc(Br)c(O)c(Br)c2)n[nH]1` [Compound 81, 3-(3,5-dibromo-4-hydroxyphenyl)-N-(4-phenoxybenzyl)-1H-1,2,4-triazole-5-carboxamide], the pIC50 was 5.82.

Compound `CN(Cc1cccc(C(F)(F)F)c1)C(=O)c1n[nH]c(-c2cc(Cl)c(O)c(Cl)c2)n1` [Compound 90, 5-(3,5-dichloro-4-hydroxyphenyl)-N-methyl-N-(3-(trifluoromethyl)benzyl)-1H-1,2,4-triazole-3-carboxamide] showed a pIC50 of 4.62.
